Patent US9073982B2, “Targets for regulation of angiogenesis” (The University of North Carolina at Chapel Hill, priority 2008, dated 2015)

Columns and labels:
[1] = system: chick chorioallantoic membrane; assay: Chick chorioallantoic membrane (CAM) assay; type: in vivo, chicken; details: 100 ng per disk, evaluated day 3 after disk placement
Experimental: On day 4, the eggs were cracked into sterile Petri dishes and incubated at 99° F. in 3% CO2, 65% humidity. For application of drug onto the CAM, Whatman grade 1 filter paper was cut into circles with a 6 mm diameter paper punch and autoclaved. To decrease inflammatory effects of the disk, the discs were soaked in 1 ml of 3.0 mg/ml cortisone acetate in absolute ETOH and air dried for 60 min in a laminar flow hood. On day 8, 5 disks per egg were placed on the outer third of the CAM, 2-3 mm from a vessel. Control PBS 7 μl was added to the discs for the control CAMs, and SFRP2 100 ng/7 μl PBS was added to the disks for the treated CAMs (n=5 control disks and 5 SFRP2-treated disks). The CAMs were evaluated under a stereomicroscope on day 3 after disk placement. Pictures were taken with a Wild M-4 70 Macrosystem, and angiogenesis was quantified using Metamorph Software with an angiogenesis module.
Fertilized chickens eggs (NC State University Chicken Research Faint) were incubated at 100.4° F. in an egg turner (Model#1588 Genesis Hova-Bator, GQF Mfg. Co., Inc.) for 3 days. […] CAMs were evaluated under a stereomicroscope on day 3 after disk placement. Pictures were taken with a Wild M-4 70 Macrosystem and angiogenesis was quantified using Metamorph Software with an angiogenesis module.

[2] = system: Human coronary artery endothelial cells (HCAEC); assay: Hypoxia-induced endothelial cell apoptosis assay (caspase 3); type: cell-based; details: Jak3 20 nM-200 pM, 36 hours hypoxia
Experimental: Human coronary artery endothelial cells (HCAEC) were used for apoptosis assays because apoptosis could not be induced in the MEC cells. HCAECs were grown in 10-cm dishes (Becton Dickinson, Franklin Lakes, N.J.) with endothelial cell basal medium-2 (EGM-2) BulletKit media (Clonetics, San Diego, Calif.) until 80% confluent. Medium was then replaced with optimal medium according to different assays. The hypoxic condition was created by incubating HCAECs in EGM-2 media without BulletKit growth factors at 37° C. in a hypoxia chamber with an atmosphere of 5% CO2/95% N2. The oxygen level in the chamber was controlled to 1.0%. Apoptosis was determined by measuring the activity of cleaved caspase 3 by using a caspase-specific fluorogenic substrate according to the protocol for the Caspase 3 Assay Kit (Sigma). HCAECs were lysed after treatment with concentrations of SFRP2 (70 pM and 700 pM) for 36 h under hypoxia. […] The enzyme-catalyzed release of 7-amino-4-methyl coumarin (AMC) was measured by a fluorescence microplate reader.
HCAEC were seeded onto a 96 well plate at 2,000 cells/well in EGM-2 with BulletKit growth supplements. […] Apoptosis was determined by measuring the activity of cleaved caspase 3 by using a caspase-specific fluorogenic substrate according to the protocol for the Apo-ONE® Homogeneous Caspase-3/7 Assay (Promega, Madison, Wis.). […]

[3] = system: HCAEC; assay: Scratch wound assay on HCAEC; type: cell-based, human; details: Jak3 20 nM-200 pM
Experimental: HCAEC were plated at 10,000 cells/well onto a 96 well plate and allowed to become confluent in EGM-2 with BulletKit growth supplements. The cells were quiesced in EGM-2 with 0.1% FBS without BulletKit growth supplements for 18 hours. The wound was formed using a 1 ml pipette tip. A 20 nM-200 pM dose curve of recombinant human Jak3 (Millipore, Temecula, Calif.) was added to the cells. Each concentration was performed in triplicate and the experiment was repeated three times with similar results. Migration distance was measured at 12 hours and then every 4 hours until wound closure in all wells. Data were recorded as percent of wound closed at each time point.

[4] = system: HCAEC; assay: Tube formation assay on HCAEC; type: cell-based, human; details: Jak3 20 nM-200 pM, 8 hours
Experimental: ECMATRIX (Chemicon, Temecula, Calif.) was thawed, diluted, and solidified in a 96 well plate according to the manufacturer's instructions. HCAEC were seeded onto the matrix at 2,000 cells/well in 150 μl of EGM-2 with 5% FBS without BulletKit growth supplements. A 20 nM-200 pM dose curve of recombinant human Jak3 was added to the cells and the plates were returned to 37° C., 5% CO2 for 8 hours. Each concentration was performed in triplicate and the experiment was repeated three times with similar results. Wells were evaluated under a Nikon Eclipse TS100 microscope at 4× magnification and pictures were taken with a Nikon CoolPix 995 digital camera. Angiogenesis was quantified by counting branch points in the resulting image.
The role of STAT3 activation in Jak3-mediated tube formation was evaluated using a small peptide inhibitor of phosphorylated STAT3 (P-STAT3). ECMATRIX was solidified in wells of a 96 well plate. HCAEC were seeded onto the matrix at 2,000 cells/well in 150 μl of EGM-2 with 5% FBS without additional BulletKit growth supplements. Wells were treated in triplicate with: PBS alone, PBS+100 μM P-STAT3 inhibitor, 20 nM Jak3, or 20 nM Jak3+100 μM P-STAT3 inhibitor. Wells were photographed at 8 hours and tube formation was quantified by counting branch points in the resulting image.

[5] = system: HCAEC; assay: Endothelial cell proliferation assay (MTT); type: cell-based, human; details: Jak3, 48 hours
Experimental: HCAEC were seeded on a 96 well plate at a concentration of 2000 cells/well and allowed to proliferate for 24 hrs in EGM-2 with BulletKit growth supplements. The cells were then quiesced in EGM-2 with 0.1% FBS without BulletKit growth supplements for 18 hours. Media was replaced with fresh EGM-2 with BulletKit growth supplements and the cells were treated in triplicate with: PBS alone; recombinant murine VEGF (60 ng/mL); or Jak3 (at a concentration of 200 nM-200 pM). After 48 h, 10 μl of the colorimetric compound 3-(4,5-dimethylthiazol-2-yl)-2,5-diphenyl tetrazolium bromide (MTT) (5 mg/mL) was added to each well and allowed to incubate for 4 h at 37° C. All but 25 μl of media in each well was removed and 50 μl dimethyl sulfoxide (DMSO) was added. Following a 10 min incubation at 37° C., the A540 was measured using a microplate reader. A540 was converted to number of cells based on a standard curved created by seeding a 96-well plate with known concentrations of cells, as determined by hemocytometry, and measuring their A540 after 4 hrs incubation with MTT.

## Jak3: recombinant human Jak3 (Millipore)
[1]
  angiogenesis on the CAM (branch points, segments, tube area, tube length): induced angiogenesis on the CAM
[2]
  hypoxia induced endothelial cell apoptosis (caspase 3 activity): protected against hypoxia induced endothelial cell apoptosis
[3]
  endothelial cell migration (percent of wound closed): increased endothelial cell migration
[4]
  endothelial tube formation (branch points): induced by Jak3 in a concentration-dependent manner
[5]
  cell proliferation: increased cell proliferation
